According to ChEMBL document CHEMBL4619764, “Synthesis of the Cyanobacterial Antibiotics Anaephenes A and B” (2020):
In brackets after ≈: the same amount, converted by molar mass.

Each compound was assayed on Bacillus cereus (assay: Antibacterial activity against Bacillus cereus ATCC 14579 after 16 hrs by CLSI-based broth microdilution method). Details: ATCC 14579, 16 h.
Format: functional

**Q.** How did the MIC turn out when CCC/C=C/CCCCc1cccc(O)c1 was run?
**A.** The MIC was 16 µg/mL (≈ 73.3 µM).

**Q.** For C#CCCC/C=C/CCCCc1cccc(O)c1, which MIC is on record?
**A.** Its MIC is 8 µg/mL (≈ 33 µM).

**Q.** With CC(=O)NC[C@H]1CN(c2ccc(N3CCOCC3)c(F)c2)C(=O)O1 [LINEZOLID] as the compound, how does the MIC read?
**A.** Its MIC is 1 µg/mL (≈ 2.96 µM).

Each compound was assayed on Staphylococcus aureus (assay: Antibacterial activity against Staphylococcus aureus ATCC 25923 after 16 hrs by CLSI-based broth microdilution method). Details: ATCC 25923, 16 h.
Format: functional

**Q.** Which MIC does the source give for CCC/C=C/CCCCc1cccc(O)c1 here?
**A.** The MIC was 16 µg/mL (≈ 73.3 µM).

**Q.** How did the MIC turn out when C#CCCC/C=C/CCCCc1cccc(O)c1 was run?
**A.** Its MIC is 8 µg/mL (≈ 33 µM).

**Q.** With CC(=O)NC[C@H]1CN(c2ccc(N3CCOCC3)c(F)c2)C(=O)O1 [LINEZOLID] as the compound, how does the MIC read?
**A.** Its MIC is 0.5 µg/mL (≈ 1.48 µM).

The compounds below were run on Staphylococcus aureus (assay: Antibacterial activity against methicillin-resistant Staphylococcus aureus ATCC 33591 after 16 hrs by CLSI-based broth microdilution method). Details: ATCC 33591, 16 h.
Format: functional

**Q.** How did the MIC turn out when CCC/C=C/CCCCc1cccc(O)c1 was run?
**A.** The MIC was 16 µg/mL (≈ 73.3 µM).

**Q.** With C#CCCC/C=C/CCCCc1cccc(O)c1 as the compound, how does the MIC read?
**A.** Its MIC is 8 µg/mL (≈ 33 µM).

**Q.** CC(=O)NC[C@H]1CN(c2ccc(N3CCOCC3)c(F)c2)C(=O)O1 [LINEZOLID] was tested. Which MIC did it give?
**A.** The MIC was 1 µg/mL (≈ 2.96 µM).
